Measured values from article PMC12756723, “Derivatives of the Cashew Nut Shell Liquid as Ligands of Pseudomonas aeruginosa Phenazine Protein D (PaPhzD)” (ACS Omega, 2025).
Entries after “also recorded” stand apart in the source; their conditions may differ.

Columns and labels:
human PPAR isoforms = test system: human PPAR isoforms; set-up: method as in Sahin et al. 2022 (likely, number not given); conditions: previously investigated; ref Sahin et al. 2022 (likely, number not given); cited from earlier work
PaPhzD = target: T1, PaPhzD (Pseudomonas aeruginosa, UniProt P0DPB9); test: Thermal shift assay (TSA) with SYPRO Orange; assay type: binding; conditions: for ΔTm at 50 µM: read-out: ΔTm of PaPhzD; for Concentration–response behavior of ΔTm: 6.25 to 100 μM
T1 construct: inferred from Ni-NTA purification with imidazole elution; made in house; host or cells: E. coli BL21(DE3)
T1 sequence (P0DPB9 whole entry): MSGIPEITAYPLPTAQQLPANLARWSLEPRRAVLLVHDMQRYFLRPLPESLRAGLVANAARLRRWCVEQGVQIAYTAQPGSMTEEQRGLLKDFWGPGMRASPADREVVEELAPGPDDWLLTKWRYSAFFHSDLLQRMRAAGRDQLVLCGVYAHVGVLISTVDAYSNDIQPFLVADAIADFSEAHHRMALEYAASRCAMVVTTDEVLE
Protocol: Thermal shift assays were performed on an Applied Biosystems 7500 RT-PCR (Applied Biosystems, Foster City, CA USA). All experiments were carried out in triplicate with 1 °C per minute increments in temperatures that range from 25 to 85 °C in 96-well PCR plates (PCR plates 96-well, BioRad), sealed with transparent capping strips (Flatcap strips, BioRad). The fluorescence of SYPRO Orange (Invitrogen S6650) was monitored (excitation wavelength, 492 nm; emission wavelength, 610 nm). Before the compounds’ screening, protein and DMSO concentrations were evaluated to improve PaPhzD stability throughout the assay.
The protein concentration required for an optimal signal-to-noise ratio (>5-fold) was evaluated by analysis of the raw fluorescence curves at different PaPhzD concentrations (1–5 μM). Then, the effect of DMSO (0–10%) over PaPhzD T m was evaluated at the optimal protein concentration. Fluorescence raw data were recorded using Applied Biosystems 7500 Software v2.0 and then processed with NAMI software to calculate T m values by the first-derivative method.
LDT compounds were screened at a final concentration of 50 μM. Briefly, 1 μL of each compound (1 mM DMSO stock solution) was added to a mixed solution containing 5 μM PaPhzD diluted in 50 mM Tris–HCl buffer (pH 8.0) containing 100 mM NaCl, 1 mM DTT, and SYPRO Orange dye (Invitrogen S6650) (1:100 dilution). Each compound was assayed in triplicate, and ΔT m values were calculated by comparison to reference wells that had 1 μL DMSO instead of the LDT compounds. Differences between T m values (ΔT m) were considered statistically significant when p < 0.01, according to the one-way ANOVA followed by Dunnett’s post-test for multiple comparisons, available in GraphPad Prism 9.0 software (GraphPad Software, San Diego, CA, USA, www.graphpad.com).
Compounds with ΔT m values statistically different from the reference were also assayed at different concentrations (ranging from 6.25 to 100 μM) to evaluate the concentration–response behavior. The ΔT m versus concentration plots were generated using the nonlinear regression method available in GraphPad Prism version 9.0.

PaPhzD-FITC = target: T2, PaPhzD-FITC (Pseudomonas aeruginosa, UniProt P0DPB9); test: Fluorescence binding assay with FITC-labeled PaPhzD
T2 construct: inferred from Ni-NTA purification with imidazole elution; made in house; host or cells: E. coli BL21(DE3)
T2 sequence (P0DPB9 whole entry): as above
Protocol: PaPhzD (2.1 mg/mL) was incubated with 6 mg/mL fluorescein isothiocyanate (FITC) (Sigma-Aldrich 46950) (1:1) for 2 h at 25 °C. Next, the reaction mixture was eluted on a Hi-Trap HP desalting column (GE Healthcare) with 2 CV of 50 mM HEPES buffer (pH 8.0). The collected fractions were quantified at two different wavelengths (280 and 495 nm), and the molar ratio (Abs495/Abs280) ranging from 0.3 to 1.0 was employed for K d calculation experiments.
Subsequently, the fluorescence intensity of 0.32 μM of FITC-labeled PaPhzD was measured on a real-time thermocycler (Applied Biosystems 7500) equipped with the filter FAN (excitation wavelength: 498 nm; emission wavelength: 530 nm) for 10 min in the presence of different concentrations of each LDT compound (ranging 0.7–100 μM), previously diluted in DMSO.
The fluorescence raw data were recorded using Applied Biosystems 7500 Software v2.0, then exported to GraphPad Prism version 9.0 software to build fluorescence intensity × concentration plots and calculate K d values of the ligands by the nonlinear regression method (3-parameter fit). All experiments were carried out in triplicate using a 96-well PCR plate, manually sealed with transparent capping strips (Flatcap strips, BioRadVR).

PPAR LBDs = test system: PPAR LBDs; set-up: method as in not printed (previous PPAR work); conditions: ref not given (previous PPAR work), cited from earlier work
[1] = test system: P. aeruginosa cells (ATCC 27853); test: Screening of PYO production inhibitors (supernatant absorbance 691 nm); assay type: cell-based, Pseudomonas aeruginosa; conditions: 100 μM; for Pyocyanin production, Cohen's d vs control: 24 h, 30 °C; for Effect on pyocyanin production: vs DMSO control
Protocol: P. aeruginosa cells (ATCC 27853) were inoculated by depletion on King’s A agar, and the plates were incubated at 30 °C for 24 h. Isolated colonies were collected and resuspended in sterile saline solution (0.85%) until turbidity equivalent to optical density (OD) at 600 nm, equal to 0.3 (1.5 × 10^8 CFU/mL). This bacterial suspension was diluted 10-fold and used to inoculate King’s A broth.
(§1) The potential inhibitors, previously solubilized in DMSO, were added to the culture medium after the inoculation (final concentration = 100 μM). The control group was cultured in the presence of an equivalent volume of DMSO but without the presence of potential inhibitors. The cell suspension was maintained at 30 °C under constant agitation (180 rpm) for 24 h in a 24-well plate. After this period, the OD600 was measured to evaluate bacterial growth, and in parallel, after being subjected to centrifugation, the supernatant was read in a 96-well plate at a wavelength of 691 nm. The sterile medium used for culturing the microorganism was used as a positive control, and culture medium containing 1% DMSO was used as a negative control.

P. aeruginosa PA14 [2] = test: Biofilm assay (crystal violet); assay type: cell-based, Pseudomonas aeruginosa; conditions: 100 μM
Protocol: Exponential phase cultures of P. aeruginosa PA14 were diluted to 5 × 10^5 colony forming units (CFU) in 48-well plates with LB containing each compound (1, 3, and 5) at 100 μM final concentrations or 0.1% DMSO (v/v) as a negative control. The plate was incubated steadily at 30 °C for 20 h inside a plastic bag to avoid evaporation. After the incubation, the OD600 of each well was measured in a plate reader (SpectraMax Paradigm). The planktonic bacteria were removed by turning the plate over the waste, followed by three steps of washing with distilled water. After drying, a solution of 1% crystal violet was added to each well and incubated at room temperature for 30 min to stain the attached cells forming a ring at the air–liquid interface. The crystal violet solution was removed, and the plate was washed using the same procedure. The dye was solubilized with 30% acetic acid for 30 min at room temperature. The Abs550 was measured, and the value was divided by the OD600 for each well. A total of 24 replicates were made for each treatment (6 wells per plate, four plates)

P. aeruginosa PA14 [3] = test: Swarming assay; assay type: cell-based, Pseudomonas aeruginosa; conditions: 100 μM
Protocol: Swarming assays were performed as described, using 6-well plates. Briefly, 3 μL of culture (OD600 = 3.0) was inoculated in the center of modified M9 (20 mM NH4Cl; 12 mM Na2HPO4; 22 mM KH2PO4; 8.6 mM NaCl; 1 mM MgSO4; 1 mM CaCl2 2 H2O; 11 mM glucose; 0.5% casamino acids (Difco)) with 0.5% of Bacto-agar (Difco), containing the respective compounds (100 μM final concentration, diluted in DMSO). Plates were incubated inside plastic bags to avoid evaporation at 30 °C for 16 h. After this period, pictures were taken, and the area covered by the colonies was measured using ImageJ. All assays were performed with four replicates, and 0.1% DMSO (v/v) was employed as a negative control.

P. aeruginosa = test: Colony morphology in medium containing compounds; assay type: cell-based, Pseudomonas aeruginosa; conditions: data not shown
[4] = test system: P. aeruginosa cells (ATCC 27853); test: Bacterial growth (OD600) in the PYO screening culture; assay type: cell-based, Pseudomonas aeruginosa; conditions: 100 μM
Protocol: as §1

phzA2-G2 = test: lacZ transcriptional fusion, phzA2-G2 operon; assay type: cell-based, Pseudomonas aeruginosa; conditions: late exponential phase
Protocol: (§2) P. aeruginosa harbors two identically structured operons in its genome, which encode most of the enzymes responsible for PYO synthesis (phzA1-G1 and phzA2-G2) but have slightly different regulatory regions 1. lacZ transcriptional fusions for each operon were assayed at mid-log and late exponential phases (OD=1 and 3, respectively). At mid-log cultures, the expression of both QS-regulated operons is extremely low, and it increases more than 1000-fold at late exponential phase for phzA1-G1 and 4-fold for phzA2-G2, as expected. Addition of compounds 2 and 4 had no effect for both operons in the late […]
(§3) synthesis is not related to inhibition at the transcriptional level.
(§4) Figure 7S: Effect of LDT10 (2) and LDT13 (3) on the phzA1-G1 (A) and phzA2-G2 […]
(§5) (1 picture or pasted object on this page, not shown here)

phzA1-G1 = test: lacZ transcriptional fusion, phzA1-G1 operon; assay type: cell-based, Pseudomonas aeruginosa; conditions: late exponential phase
Protocol: as §2, §3, §4, §5

CCCCCCCCCCCCCCCc1cccc(OC(C)(C)C(=O)O)c1 [Compound 16]
PPAR activity profile (human PPAR isoforms): pan-agonist activity
ΔTm at 50 µM (PaPhzD): -2.6 °C

CCCCCCCCCCCCCCCc1cccc(OC)c1 [Compound 12]
PPAR activity profile (human PPAR isoforms): do not activate PPAR receptors
ΔTm at 50 µM (PaPhzD): < 0.5 °C

CCCCCCCCCCCCCCCc1cccc(OCC(=O)O)c1 [Compound 15]
PPAR activity profile (human PPAR isoforms): pan-agonist activity
Kd (PaPhzD-FITC): 1000 µM
Concentration–response behavior of ΔTm (PaPhzD): clear concentration–response behavior
ΔTm at 50 µM (PaPhzD): -3.8 °C

CCCCCCCCCCCCCCCc1cccc(OC(C)(C)C(=O)OCC)c1 [Compound 14]
PPAR activity profile (human PPAR isoforms): dual (PPARα and PPARγ) agonists
Effect on Tm values for all three PPARs (PPAR LBDs): no effect on the T m values
ΔTm at 50 µM (PaPhzD): < 0.5 °C

CCCCCCCCCCCCCCCc1cccc(OC(C)=O)c1C(=O)O [Compound 3]
PPAR activity profile (human PPAR isoforms): pan-agonist activity
Pyocyanin production, Cohen's d vs control [1]: −1.37
Effect on pyocyanin production [1]: no effect on pyocyanin production
Biofilm mass, % of the control (P. aeruginosa PA14 [2]): ~30%
Biofilm, Cohen's d vs control (P. aeruginosa PA14 [2]): −2.29
Increase of PPAR LBDs Tm vs DMSO control (PPAR LBDs; 50 μM): up to +17 °C
Effect on swarming coverage area (P. aeruginosa PA14 [3]): did not affect the coverage area
Swarming motility, Cohen's d vs control (P. aeruginosa PA14 [3]): 0.51
Kd (PaPhzD-FITC): 0.72 µM
Concentration–response behavior of ΔTm (PaPhzD): clear concentration–response behavior
ΔTm at 50 µM (PaPhzD): -4.7 °C
Effect on colony morphology (P. aeruginosa): No effects on colony morphology

CCCCCCCCCCCCCCCc1cccc(OC)c1C(=O)OC [Compound 9]
PPAR activity profile (human PPAR isoforms): do not activate PPAR receptors
ΔTm at 50 µM (PaPhzD): < 0.5 °C

CCCCCCCCCCCCCCCc1cccc(O)c1C(=O)OC [Compound 7]
PPAR activity profile (human PPAR isoforms): do not activate PPAR receptors
ΔTm at 50 µM (PaPhzD): < 0.5 °C

CCCCCCCCCCCCCCCc1cccc(O)c1C(=O)O [Compound 1]
PPAR activity profile (human PPAR isoforms): dual (PPARα and PPARγ) agonists
Concentration–response behavior of ΔTm (PaPhzD): clear concentration–response behavior

CCCCCCCCCCCCCCCc1cccc(OC)c1C(=O)O [Compound 4]
Effect on bacterial growth [4]: without affecting bacterial growth; also recorded: no significant effect on bacterial growth
PPAR activity profile (human PPAR isoforms): selective PPARα agonist
Pyocyanin production, Cohen's d vs control [1]: −2.69
Effect on pyocyanin production [1]: decreased pyocyanin production
Effect on biofilm formation (P. aeruginosa PA14 [2]; vs DMSO control): without affecting bacterial growth or biofilm formation; also recorded: not significantly different the control
Swarming motility, % compared to control conditions (P. aeruginosa PA14 [3]): 65%
Swarming motility, Cohen's d vs control (P. aeruginosa PA14 [3]): −0.95
Effect on phzA2-G2 transcription (phzA2-G2): no effect
Effect on phzA1-G1 transcription (phzA1-G1): no effect
Kd (PaPhzD-FITC): 3.6 µM
Concentration–response behavior of ΔTm (PaPhzD): clear concentration–response behavior
ΔTm at 50 µM (PaPhzD): -3.3 °C
Effect on colony morphology (P. aeruginosa): No effects on colony morphology

CCCCCCCCCCCCCCCc1cccc(OC(C)=O)c1 [Compound 11]
PPAR activity profile (human PPAR isoforms): do not activate PPAR receptors
ΔTm at 50 µM (PaPhzD): < 0.5 °C

CCCCCCCCCCCCCCCc1ccc(C(=O)O)c(OC)c1 [Compound 10]
PPAR activity profile (human PPAR isoforms): dual (PPARα and PPARγ) agonists
ΔTm at 50 µM (PaPhzD): -1.2 °C

CCCCCCCCCCCCCCCc1cccc(OCC(=O)OCC)c1 [Compound 13]
PPAR activity profile (human PPAR isoforms): pan-agonist activity
Thermal shift in LBDs of PPARα and PPARγ (PPAR LBDs): negative thermal shift
ΔTm at 50 µM (PaPhzD): -1.2 °C

CCCCCCCCCCCCCCCc1cccc(OC(C)=O)c1C(=O)OC [Compound 8]
PPAR activity profile (human PPAR isoforms): do not activate PPAR receptors
ΔTm at 50 µM (PaPhzD): < 0.5 °C
